# Tests used:
# Assay type in all cases: functional
# RPMI-8226 [1] = experiment: Cytotoxicity against human RPMI8226 cells assessed as cell growth at 0.01 uM after 48 hrs by sulforhodamine B assay relative to control; settings: RPMI-8226, 48 h, read-out: Activity
# A549 = experiment: Cytotoxicity against human A549/ATCC cells assessed as cell growth at 0.01 uM after 48 hrs by sulforhodamine B assay relative to control; settings: A549, 48 h, read-out: Activity
# MDA-MB-435 = experiment: Cytotoxicity against human MDA-MB-435 cells assessed as cell growth at 0.01 uM after 48 hrs by sulforhodamine B assay relative to control; settings: MDA-MB-435, 48 h, read-out: Activity
# SK-OV-3 = experiment: Cytotoxicity against human SKOV3 cells assessed as cell growth at 0.01 uM after 48 hrs by sulforhodamine B assay relative to control; settings: SK-OV-3, 48 h, read-out: Activity
# IGROV-1 = experiment: Cytotoxicity against human IGROV1 cells assessed as cell growth at 0.01 uM after 48 hrs by sulforhodamine B assay relative to control; settings: IGROV-1, 48 h, read-out: Activity
# ACHN = experiment: Cytotoxicity against human ACHN cells assessed as cell growth at 100 uM after 48 hrs by sulforhodamine B assay relative to control; settings: read-out: Activity
# MOLT-4 = experiment: Cytotoxicity against human MOLT4 cells assessed as cell growth at 0.1 uM after 48 hrs by sulforhodamine B assay relative to control; settings: MOLT-4, 48 h, read-out: Activity
# SF-539 = experiment: Cytotoxicity against human SF539 cells assessed as cell growth at 0.01 uM after 48 hrs by sulforhodamine B assay relative to control; settings: SF-539, 48 h, read-out: Activity
# RXF 393 [2] = experiment: Cytotoxicity against human RXF393 cells assessed as cell growth at 0.01 uM after 48 hrs by sulforhodamine B assay relative to control; settings: RXF 393, 48 h, read-out: Activity
# UACC-62 = experiment: Cytotoxicity against human UACC62 cells assessed as cell growth at 0.01 uM after 48 hrs by sulforhodamine B assay relative to control; settings: UACC-62, 48 h, read-out: Activity
# NCI/ADR-RES = experiment: Cytotoxicity against human NCI/ADR-RES cells assessed as cell growth at 10 uM after 48 hrs by sulforhodamine B assay relative to control; settings: read-out: Activity
# OVCAR-8 [3] = experiment: Cytotoxicity against human OVCAR8 cells assessed as cell growth at 0.1 uM after 48 hrs by sulforhodamine B assay relative to control; settings: OVCAR-8, 48 h, read-out: Activity
# NCI-H322M [4] = experiment: Cytotoxicity against human NCI-H322M cells assessed as cell growth at 1 uM after 48 hrs by sulforhodamine B assay relative to control; settings: read-out: Activity
# OVCAR-8 [5] = experiment: Cytotoxicity against human OVCAR8 cells assessed as cell growth at 10 uM after 48 hrs by sulforhodamine B assay relative to control; settings: OVCAR-8, 48 h, read-out: Activity
# UACC-257 = experiment: Cytotoxicity against human UACC257 cells assessed as cell growth at 100 uM after 48 hrs by sulforhodamine B assay relative to control; settings: UACC-257, 48 h, read-out: Activity
# PC-3 = experiment: Cytotoxicity against human PC3 cells assessed as cell growth at 1 uM after 48 hrs by sulforhodamine B assay relative to control; settings: PC-3, 48 h, read-out: Activity
# RPMI-8226 [6] = experiment: Cytotoxicity against human RPMI8226 cells assessed as cell growth at 10 uM after 48 hrs by sulforhodamine B assay relative to control; settings: RPMI-8226, 48 h, read-out: Activity
# HT-29 [7] = experiment: Cytotoxicity against human HT-29 cells assessed as cell growth at 100 uM after 48 hrs by sulforhodamine B assay relative to control; settings: HT-29, 48 h, read-out: Activity
# NCI-H460 = experiment: Cytotoxicity against human NCI-H460 cells assessed as cell growth at 0.01 uM after 48 hrs by sulforhodamine B assay relative to control; settings: NCI-H460, 48 h, read-out: Activity
# LOX IMVI = experiment: Cytotoxicity against human LOXIMVI cells assessed as growth inhibition after 48 hrs by sulforhodamine B assay
# SF-268 = experiment: Cytotoxicity against human SF268 cells assessed as cell growth at 100 uM after 48 hrs by sulforhodamine B assay relative to control; settings: SF-268, 48 h, read-out: Activity
# U-251 = experiment: Cytotoxicity against human U251 cells assessed as cell growth at 0.1 uM after 48 hrs by sulforhodamine B assay relative to control; settings: U-251, 48 h, read-out: Activity
# OVCAR-8 [8] = experiment: Cytotoxicity against human OVCAR8 cells assessed as growth inhibition after 48 hrs by sulforhodamine B assay; settings: OVCAR-8, 48 h
# HCT-116 = experiment: Cytotoxicity against human HCT116 cells assessed as cell growth at 1 uM after 48 hrs by sulforhodamine B assay relative to control; settings: HCT-116, 48 h, read-out: Activity
# HT-29 [9] = experiment: Cytotoxicity against human HT-29 cells assessed as growth inhibition after 48 hrs by sulforhodamine B assay; settings: HT-29, 48 h
# A498 = experiment: Cytotoxicity against human A498 cells assessed as cell growth at 0.01 uM after 48 hrs by sulforhodamine B assay relative to control; settings: A498, 48 h, read-out: Activity
# NCI-H226 = experiment: Cytotoxicity against human NCI-H226 cells assessed as cell growth at 0.1 uM after 48 hrs by sulforhodamine B assay relative to control; settings: NCI-H226, 48 h, read-out: Activity
# Malme-3M = experiment: Cytotoxicity against human MALME-3M cells assessed as cell growth at 0.01 uM after 48 hrs by sulforhodamine B assay relative to control; settings: read-out: Activity
# MCF7 = experiment: Cytotoxicity against human MCF7 cells assessed as cell growth at 10 uM after 48 hrs by sulforhodamine B assay relative to control; settings: MCF7, 48 h, read-out: Activity
# T47D = experiment: Cytotoxicity against human T47D cells assessed as cell growth at 0.01 uM after 48 hrs by sulforhodamine B assay relative to control; settings: read-out: Activity
# SK-MEL-2 = experiment: Cytotoxicity against human SK-MEL-2 cells assessed as growth inhibition after 48 hrs by sulforhodamine B assay; settings: SK-MEL-2, 48 h
# NCI-H322M [10] = experiment: Cytotoxicity against human NCI-H322M cells assessed as cell growth at 100 uM after 48 hrs by sulforhodamine B assay relative to control; settings: read-out: Activity
# HT-29 [11] = experiment: Cytotoxicity against human HT-29 cells assessed as cell growth at 0.1 uM after 48 hrs by sulforhodamine B assay relative to control; settings: HT-29, 48 h, read-out: Activity
# 786-0 = experiment: Cytotoxicity against human 786-0 cells assessed as cell growth at 0.01 uM after 48 hrs by sulforhodamine B assay relative to control; settings: 786-0, 48 h, read-out: Activity
# HT-29 [12] = experiment: Cytotoxicity against human HT-29 cells assessed as cell growth at 0.01 uM after 48 hrs by sulforhodamine B assay relative to control; settings: HT-29, 48 h, read-out: Activity
# RXF 393 [13] = experiment: Cytotoxicity against human RXF393 cells assessed as cell growth at 1 uM after 48 hrs by sulforhodamine B assay relative to control; settings: RXF 393, 48 h, read-out: Activity
compound,measurement,setting,value
COc1ccc(C(=O)/C=C/c2cc(-c3ccc(OC)c(OC)c3)n[nH]2)cc1OC,growth at 0.01 µM,RPMI-8226 [1],98%
same,growth at 0.01 µM,A549,97%
same,growth at 0.01 µM,MDA-MB-435,89%
same,growth at 0.01 µM,SK-OV-3,83%
same,growth at 0.01 µM,IGROV-1,104%
same,growth at 100 µM,ACHN,-60%
same,growth at 0.1 µM,MOLT-4,101%
same,growth at 0.01 µM,SF-539,89%
same,growth at 0.01 µM,RXF 393 [2],94%
same,growth at 0.01 µM,UACC-62,95%
same,growth at 10 µM,NCI/ADR-RES,16%
same,growth at 0.1 µM,OVCAR-8 [3],98%
same,growth at 1 µM,NCI-H322M [4],94%
same,growth at 10 µM,OVCAR-8 [5],8%
same,growth at 100 µM,UACC-257,-70%
same,growth at 1 µM,PC-3,69%
same,growth at 10 µM,RPMI-8226 [6],-30%
same,growth at 100 µM,HT-29 [7],-39%
same,growth at 0.01 µM,NCI-H460,102%
same,GI50,LOX IMVI,1.29 µM
same,TGI,LOX IMVI,2.7 µM
same,growth at 100 µM,SF-268,-25%
same,growth at 0.1 µM,U-251,89%
same,GI50,OVCAR-8 [8],2.63 µM
same,TGI,OVCAR-8 [8],22.5 µM
same,growth at 1 µM,HCT-116,21%
same,GI50,HT-29 [9],1.38 µM
same,TGI,HT-29 [9],4.95 µM
same,growth at 0.01 µM,A498,82%
same,growth at 0.1 µM,NCI-H226,88%
same,growth at 0.01 µM,Malme-3M,99%
same,growth at 10 µM,MCF7,-5%
same,growth at 0.01 µM,T47D,82%
same,GI50,SK-MEL-2,2.46 µM
same,TGI,SK-MEL-2,5.17 µM
same,growth at 100 µM,NCI-H322M [10],-48%
same,growth at 0.1 µM,HT-29 [11],96%
same,growth at 0.01 µM,786-0,92%
same,growth at 0.01 µM,HT-29 [12],98%
same,growth at 1 µM,RXF 393 [13],76%
COc1ccc(-c2cc(/C=C/C(=O)c3ccc(N)cc3)[nH]n2)cc1OC,growth at 0.01 µM,RPMI-8226 [1],98%
same,growth at 0.01 µM,A549,97%
same,growth at 0.01 µM,MDA-MB-435,91%
same,growth at 0.01 µM,SK-OV-3,88%
same,growth at 0.01 µM,IGROV-1,106%
same,growth at 100 µM,ACHN,-95%
same,growth at 0.1 µM,MOLT-4,106%
same,growth at 0.01 µM,SF-539,93%
same,growth at 0.01 µM,RXF 393 [2],99%
same,growth at 0.01 µM,UACC-62,99%
same,growth at 10 µM,NCI/ADR-RES,37%
same,growth at 0.1 µM,OVCAR-8 [3],99%
same,growth at 1 µM,NCI-H322M [4],95%
same,growth at 10 µM,OVCAR-8 [5],2%
same,growth at 100 µM,UACC-257,-96%
same,growth at 1 µM,PC-3,89%
same,growth at 10 µM,RPMI-8226 [6],-20%
same,growth at 100 µM,HT-29 [7],-59%
same,growth at 0.01 µM,NCI-H460,101%
same,GI50,LOX IMVI,1.92 µM
same,LC50,LOX IMVI,7.98 µM
same,TGI,LOX IMVI,3.91 µM
same,growth at 100 µM,SF-268,-80%
same,growth at 0.1 µM,U-251,95%
same,GI50,OVCAR-8 [8],2.95 µM
same,LC50,OVCAR-8 [8],39 µM
same,TGI,OVCAR-8 [8],10.5 µM
same,growth at 1 µM,HCT-116,87%
same,GI50,HT-29 [9],2.6 µM
same,LC50,HT-29 [9],58.9 µM
same,TGI,HT-29 [9],6.91 µM
same,growth at 0.01 µM,A498,95%
same,growth at 0.1 µM,NCI-H226,91%
same,growth at 0.01 µM,Malme-3M,104%
same,growth at 10 µM,MCF7,-6%
same,growth at 0.01 µM,T47D,85%
same,GI50,SK-MEL-2,8.44 µM
same,LC50 (concentration killing 50% of cells),SK-MEL-2,53.2 µM
same,TGI,SK-MEL-2,22.2 µM
same,growth at 100 µM,NCI-H322M [10],-88%
same,growth at 0.1 µM,HT-29 [11],107%
same,growth at 0.01 µM,786-0,91%
same,growth at 0.01 µM,HT-29 [12],98%
same,growth at 1 µM,RXF 393 [13],94%
COc1ccc(C(=O)/C=C/c2cc(-c3cc(OC)c(OC)c(OC)c3)n[nH]2)cc1,growth at 0.01 µM,RPMI-8226 [1],98%
same,growth at 0.01 µM,A549,98%
same,growth at 0.01 µM,MDA-MB-435,99%
same,growth at 0.01 µM,SK-OV-3,100%
same,growth at 0.01 µM,IGROV-1,101%
same,growth at 100 µM,ACHN,-93%
same,growth at 0.1 µM,MOLT-4,103%
same,growth at 0.01 µM,SF-539,97%
same,growth at 0.01 µM,RXF 393 [2],93%
same,growth at 0.01 µM,UACC-62,100%
same,growth at 10 µM,NCI/ADR-RES,-1%
same,growth at 0.1 µM,OVCAR-8 [3],98%
same,growth at 1 µM,NCI-H322M [4],93%
same,growth at 10 µM,OVCAR-8 [5],-8%
same,growth at 100 µM,UACC-257,-4%
same,growth at 1 µM,PC-3,76%
same,growth at 10 µM,RPMI-8226 [6],-41%
same,growth at 100 µM,HT-29 [7],-19%
same,growth at 0.01 µM,NCI-H460,103%
same,TGI,LOX IMVI,3.02 µM
same,growth at 100 µM,SF-268,-37%
same,growth at 0.1 µM,U-251,97%
same,LC50,OVCAR-8 [8],> 100 µM
same,TGI,OVCAR-8 [8],8.26 µM
same,growth at 1 µM,HCT-116,72%
same,TGI,HT-29 [9],4.19 µM
same,growth at 0.01 µM,A498,98%
same,growth at 0.1 µM,NCI-H226,102%
same,growth at 0.01 µM,Malme-3M,95%
same,growth at 10 µM,MCF7,-64%
same,growth at 0.01 µM,T47D,96%
same,LC50 (concentration killing 50% of cells),SK-MEL-2,99.2 µM
same,TGI,SK-MEL-2,19.6 µM
same,growth at 100 µM,NCI-H322M [10],-31%
same,growth at 0.1 µM,HT-29 [11],102%
same,growth at 0.01 µM,786-0,98%
same,growth at 0.01 µM,HT-29 [12],102%
same,growth at 1 µM,RXF 393 [13],67%

# Source: ChEMBL document CHEMBL4138123, “Design, synthesis and biological evaluation of novel pyrazolochalcones as potential modulators of PI3K/Akt/mTOR pathway and inducers of apoptosis in breast cancer cells” (Eur J Med Chem, 2017)
